Active and inactive are the calls of the source. No cut-off for these calls is given here.
System: Candida albicans
Test: Antifungal activity against Candida albicans
Type: functional, organism-based

| Compound | Activity |
| --- | --- |
| CCC(C)CCCCCC/C=C\CC/C=C\CCCC(=O)OC (centres undefined) | inactive |
| CC/C=C\C/C=C/C=C/CCCCCC[C@@]1(C)C[C@](C)(CC(=O)OC)OO1 (relative stereo) | inactive |
| CC/C=C\C/C=C/C=C/CCCCCC[C@@]1(C)C[C@](C)(CC(=O)O)OO1 (relative stereo) | inactive |
| C[C@@]1(CCCCCCCCCCc2ccccc2)C[C@]2(C)OC(=O)C[C@@H]2OO1 | inactive |
